# In PubChem BioAssay (NCI):
#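 In this assay, cells in 96-well plates receive the compound at five concentrations for 48 hours. Endpoints are linearly interpolated between the surrounding concentrations. The concentration for 50% growth inhibition is given as GI50. TGI denotes the concentration required for complete inhibition of growth.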
# Legend:
# Experiment in all cases: NCI-60 cell line screen, 48 h
# 786-0 renal = system: 786-0 renal
# A498 renal = system: A498 renal
# A549 NSCLC = system: A549 NSCLC
# ACHN renal = system: ACHN renal
# BT-549 breast = system: BT-549 breast
# CCRF-CEM leukemia = system: CCRF-CEM leukemia
# COLO 205 colon = system: COLO 205 colon
# DU-145 prostate = system: DU-145 prostate
# EKVX NSCLC = system: EKVX NSCLC
# HCC-2998 colon = system: HCC-2998 colon
# HCT-116 colon = system: HCT-116 colon
# HCT-15 colon = system: HCT-15 colon
# HL-60(TB) leukemia = system: HL-60(TB) leukemia
# HOP-62 NSCLC = system: HOP-62 NSCLC
# HOP-92 NSCLC = system: HOP-92 NSCLC
# HS 578T breast = system: HS 578T breast
# IGROV1 ovarian = system: IGROV1 ovarian
# K-562 leukemia = system: K-562 leukemia
# KM12 colon = system: KM12 colon
# LOX IMVI melanoma = system: LOX IMVI melanoma
# M14 melanoma = system: M14 melanoma
# MALME-3M melanoma = system: MALME-3M melanoma
# MCF7 breast = system: MCF7 breast
# MDA-MB-231 breast = system: MDA-MB-231 breast
# MDA-MB-435 = system: MDA-MB-435
# MDA-MB-468 breast = system: MDA-MB-468 breast
# NCI-H226 lung = system: NCI-H226 lung
# NCI-H23 lung = system: NCI-H23 lung
# NCI-H460 lung = system: NCI-H460 lung
# NCI-H522 lung = system: NCI-H522 lung
# NCI/ADR-RES ovarian = system: NCI/ADR-RES ovarian
# OVCAR-3 ovarian = system: OVCAR-3 ovarian
# OVCAR-4 ovarian = system: OVCAR-4 ovarian
# OVCAR-5 ovarian = system: OVCAR-5 ovarian
# OVCAR-8 ovarian = system: OVCAR-8 ovarian
# PC-3 prostate = system: PC-3 prostate
# RPMI-8226 leukemia = system: RPMI-8226 leukemia
# RXF 393 renal = system: RXF 393 renal
# SF-268 CNS = system: SF-268 CNS
# SF-295 CNS = system: SF-295 CNS
# SF-539 CNS = system: SF-539 CNS
# SK-MEL-2 melanoma = system: SK-MEL-2 melanoma
# SK-MEL-5 melanoma = system: SK-MEL-5 melanoma
# SK-OV-3 ovarian = system: SK-OV-3 ovarian
# SN12C renal = system: SN12C renal
# SNB-19 CNS = system: SNB-19 CNS
# SNB-75 CNS = system: SNB-75 CNS
# SW-620 colon = system: SW-620 colon
# T-47D breast = system: T-47D breast
# TK-10 renal = system: TK-10 renal
# U251 CNS = system: U251 CNS
# UACC-257 melanoma = system: UACC-257 melanoma
# UACC-62 melanoma = system: UACC-62 melanoma
smiles,measurement,setting,value
ClC(Cn1ncc2c(Nc3cccc(Br)c3)nc(SCCN3CCOCC3)nc21)c1ccc(Br)cc1 (stereo unspecified),GI50,786-0 renal,1.76 µM
same,TGI,786-0 renal,3.35 µM
same,GI50,A498 renal,6.37 µM
same,TGI,A498 renal,35.2 µM
same,GI50,A549 NSCLC,4.93 µM
same,TGI,A549 NSCLC,> 100 µM
same,GI50,ACHN renal,4.38 µM
same,TGI,ACHN renal,> 100 µM
same,GI50,BT-549 breast,11.7 µM
same,TGI,BT-549 breast,27.9 µM
same,GI50,CCRF-CEM leukemia,2.17 µM
same,TGI,CCRF-CEM leukemia,10.1 µM
same,GI50,COLO 205 colon,1.98 µM
same,TGI,COLO 205 colon,4.48 µM
same,GI50,DU-145 prostate,15.1 µM
same,TGI,DU-145 prostate,> 100 µM
same,GI50,EKVX NSCLC,5.01 µM
same,TGI,EKVX NSCLC,> 100 µM
same,GI50,HCC-2998 colon,3.8 µM
same,TGI,HCC-2998 colon,60 µM
same,GI50,HCT-116 colon,3.09 µM
same,TGI,HCT-116 colon,> 100 µM
same,GI50,HCT-15 colon,1.65 µM
same,TGI,HCT-15 colon,3.8 µM
same,GI50,HL-60(TB) leukemia,3.03 µM
same,TGI,HL-60(TB) leukemia,> 100 µM
same,GI50,HOP-62 NSCLC,3.71 µM
same,TGI,HOP-62 NSCLC,22.4 µM
same,GI50,HOP-92 NSCLC,3.5 µM
same,TGI,HOP-92 NSCLC,23.9 µM
same,GI50,HS 578T breast,2.44 µM
same,TGI,HS 578T breast,7.88 µM
same,GI50,IGROV1 ovarian,8 µM
same,TGI,IGROV1 ovarian,> 100 µM
same,GI50,K-562 leukemia,2.84 µM
same,TGI,K-562 leukemia,26.2 µM
same,GI50,KM12 colon,2.72 µM
same,TGI,KM12 colon,7.36 µM
same,GI50,LOX IMVI melanoma,1.74 µM
same,TGI,LOX IMVI melanoma,3.24 µM
same,GI50,M14 melanoma,2.5 µM
same,TGI,M14 melanoma,8.72 µM
same,GI50,MALME-3M melanoma,1.81 µM
same,TGI,MALME-3M melanoma,3.53 µM
same,GI50,MCF7 breast,2.77 µM
same,TGI,MCF7 breast,24.6 µM
same,GI50,MDA-MB-231 breast,2.25 µM
same,TGI,MDA-MB-231 breast,4.66 µM
same,GI50,MDA-MB-435,3.89 µM
same,TGI,MDA-MB-435,21.5 µM
same,GI50,MDA-MB-468 breast,2.52 µM
same,TGI,MDA-MB-468 breast,6.89 µM
same,GI50,NCI-H226 lung,9.32 µM
same,TGI,NCI-H226 lung,71.6 µM
same,GI50,NCI-H23 lung,3.46 µM
same,TGI,NCI-H23 lung,18.6 µM
same,GI50,NCI-H460 lung,3.55 µM
same,TGI,NCI-H460 lung,> 100 µM
same,GI50,NCI-H522 lung,2.87 µM
same,TGI,NCI-H522 lung,9.33 µM
same,GI50,NCI/ADR-RES ovarian,3.89 µM
same,TGI,NCI/ADR-RES ovarian,97.5 µM
same,GI50,OVCAR-3 ovarian,10.3 µM
same,TGI,OVCAR-3 ovarian,60 µM
same,GI50,OVCAR-4 ovarian,6.42 µM
same,TGI,OVCAR-4 ovarian,> 100 µM
same,GI50,OVCAR-5 ovarian,5.24 µM
same,TGI,OVCAR-5 ovarian,30.3 µM
same,GI50,OVCAR-8 ovarian,6.5 µM
same,TGI,OVCAR-8 ovarian,> 100 µM
same,GI50,PC-3 prostate,3.77 µM
same,TGI,PC-3 prostate,> 100 µM
same,GI50,RPMI-8226 leukemia,2.03 µM
same,TGI,RPMI-8226 leukemia,4.59 µM
same,GI50,RXF 393 renal,1.69 µM
same,TGI,RXF 393 renal,4.49 µM
same,GI50,SF-268 CNS,6.94 µM
same,TGI,SF-268 CNS,> 100 µM
same,GI50,SF-295 CNS,1.78 µM
same,TGI,SF-295 CNS,3.57 µM
same,GI50,SF-539 CNS,1.79 µM
same,TGI,SF-539 CNS,3.48 µM
same,GI50,SK-MEL-2 melanoma,4.62 µM
same,TGI,SK-MEL-2 melanoma,24.5 µM
same,GI50,SK-MEL-5 melanoma,2.07 µM
same,TGI,SK-MEL-5 melanoma,4.47 µM
same,GI50,SK-OV-3 ovarian,6.46 µM
same,TGI,SK-OV-3 ovarian,> 100 µM
same,GI50,SN12C renal,6.47 µM
same,TGI,SN12C renal,> 100 µM
same,GI50,SNB-19 CNS,5.14 µM
same,TGI,SNB-19 CNS,> 100 µM
same,GI50,SNB-75 CNS,2.57 µM
same,TGI,SNB-75 CNS,24.3 µM
same,GI50,SW-620 colon,2.76 µM
same,TGI,SW-620 colon,12.6 µM
same,GI50,T-47D breast,3.47 µM
same,TGI,T-47D breast,> 100 µM
same,GI50,TK-10 renal,13.6 µM
same,TGI,TK-10 renal,> 100 µM
same,GI50,U251 CNS,3.34 µM
same,TGI,U251 CNS,41.3 µM
same,GI50,UACC-257 melanoma,2.82 µM
same,TGI,UACC-257 melanoma,9.84 µM
same,GI50,UACC-62 melanoma,2.23 µM
same,TGI,UACC-62 melanoma,4.75 µM
